Here are results for 1 molecule from patent publication US20040048791A1, “Method for treating neoplastic cells using cycloprodigiosin or salt thereof” (priority 2002, published 2004).

The subject of one experiment is CMV promoter. In words: CMV promoter-dependent luciferase gene expression (control). In kind it is cell-based. The following applies: FIG. 2B. On the procedure:
Luciferase gene reporter assay and Kinase assays of IKK: HeLa cells were transfected with the reporter plasmids described above using Lipofectin (GIBCO BRL). After 24-48 hr, the luciferase activity was determined using the Luciferase Assay System (Promega). The kinase activity of IKKα and IKKβ were analyzed by immune complex kinase assay as described previously (Oka, S., Kamata, H., Kamata, K., Yagisawa, H. and Hirata, H. (2000) FEBS Lett. 472, 196-202). The substrates was using GST-IκBα(1-55) or GST-p65(399-551).

Experiment [1] concerns NF-κB. In words: EMSA of NF-κB DNA binding activity in nuclear extract. In kind it is cell-based. Here is the method:
Electrophoretic mobility shift assay (EMSA): Nuclear extracts were prepared by the method of Schreiber, et al (Schreiber, E., Matthias, P., Muller, M. M. and Schaffner, W. (1989) Nucleic Acids Res. 17, 6419). Briefly, cells were solubilized with a buffer (10 mM HEPES-NaOH, pH 7.9, 10 mM KCl, 0.1 mM EDTA, 0.1 mM EGTA, 0.4% NP-40, 0.5 mM PMSF, 1 μg/ml aprotinin, 1 μg/ml leupeptin, 1 μg/ml pepstatin, 1 mM DTT), and then centrifuged at 10,000 rpm for 15 min. The pellets were resuspended in a buffer (20 mM HEPES-NaOH, pH 7.9, 400 mM NaCl, 1 mM EDTA, 1 mM EGTA, 1 mM PMSF, 1 μg/ml aprotinin, 1 μg/ml leupeptin, 1 μg/ml pepstatin, 1 μg/ml chymostatin, 1 μg/ml antipain, 1 mM DTT), and then centrifuged at 15,000 rpm for 15 min. […] The samples were electrophoresed on an 8% polyacrylamide gel and analyzed by an Imaging plate (Fuji Film).
In order to find out the mechanism of NF-κB suppression by cPrG-HCl, the effect on the signal transduction system, which functions upstream of NF-κB, was analyzed. […] Next, the effect of cPrG-HCl on phosphorylation and degradation of IκB was analyzed by Western blotting using anti-IκB antibody (FIG. 2E). […] Accordingly, nuclear translocation of NF-κB was analyzed by Western blotting using p65 and p50 which are components of NF-κB (FIG. 2F). […] Further, the state of NF-κB activation in the nucleus was analyzed by EMSA (electrophoretic mobility shift assay) (FIG. 2G). […]
On the technique in general: Mobility shift assays separate free from complexed probe on a gel.

The next experiment deals with casein kinase II (CKII) (Homo sapiens, UniProt P68400). Briefly: Casein kinase II activity in vitro. It counts as biochemical. The following applies: FIG. 12, hydrochloride. The text has this: Accordingly, in order to identify the p65 kinase which cPrG-HCl suppressed, the effect of cPrG-HCl on PKA (FIG. 13), casein kinase II (CKII) (FIG. 12), and IκB kinase (IKK) (FIG. 14) was studied in vitro.
Chain of casein kinase II (CKII) (P68400 whole entry): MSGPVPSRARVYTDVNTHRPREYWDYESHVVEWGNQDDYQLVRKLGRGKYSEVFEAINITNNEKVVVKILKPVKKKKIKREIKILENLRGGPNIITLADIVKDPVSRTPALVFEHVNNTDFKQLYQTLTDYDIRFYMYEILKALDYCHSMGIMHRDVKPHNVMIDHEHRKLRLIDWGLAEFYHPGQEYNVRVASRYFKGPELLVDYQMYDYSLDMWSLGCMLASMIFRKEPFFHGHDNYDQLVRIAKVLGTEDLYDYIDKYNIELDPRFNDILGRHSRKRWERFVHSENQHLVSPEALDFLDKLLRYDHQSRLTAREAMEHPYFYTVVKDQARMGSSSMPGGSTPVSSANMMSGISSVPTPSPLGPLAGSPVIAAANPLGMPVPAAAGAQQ

The subject of experiment [2] is AP-1. Briefly: EMSA of AP-1 DNA binding activity. It counts as cell-based. On the procedure: In addition, in order to reveal the mechanism of the suppression of AP-1 transcriptional activation, the effect of cPrG-HCl on upstream kinases, i.e., JNK and p38, was analyzed. Further, relationship between the suppression of AP-1 transcriptional activation by cPrG-HCl and the acidification of intracellular pH was studied.

Experiment [3] has as its system NF-κB. Briefly: NF-κB luciferase reporter assay in U373, 293, COS7 and MKN45 cells. It counts as cell-based, human; African green monkey. The following applies: all the cells tested: U373, 293, COS7, MKN45; FIGS. 6A to 6F. On the procedure: (§1) In order to find out whether the suppression of NF-κB and AP-1 activation was specific to HeLa cells used above, analysis was made with various kind of cells. The cells used were U373 cells (human brain tumor cells), 293 cells (human embryo-derived kidney cells), COS7 cells (African green monkey kidney-derived cells), and MKN45 cells (human gastric tumor cells).
(§2) The NF-κB reporter plasmid pIG3Luc was incorporated into cells by transfection. After 24 hours, the cells were pretreated with cPrG-HCl at a specified concentration for 1 hour and then stimulated with TNFα (20 ng/ml) or PMA (1 μg/ml) for 4 hours, after which luciferase activity was measured. Each activity was corrected for the amount of protein.
Background: A reporter such as luciferase makes a cellular process visible.

For experiment [4], the system named is AP-1. In words: AP-1 luciferase reporter assay in various kinds of cells. It counts as cell-based, human; African green monkey. Conditions: all the cells tested: U373, 293, COS7, MKN45; FIGS. 6A to 6F. On the procedure:
as §1, §2

For a further experiment, the system named is IL-8 promoter. Briefly: IL-8 promoter luciferase assay (pIL-8Luc) in HeLa cells. It counts as cell-based. The following applies: TNFα 20 ng/ml 4 hours, FIG. 7. Here is the method: Now in order to analyze the effect of cPrG-HCl on IL-8 gene expression which is controlled by transcription factors such as NF-κB and AP-1, luciferase assay was carried out using a reporter plasmid (pIL-8Luc) in which the luciferase gene is bound downstream of the IL-8 promoter region. In the IL-8 promoter, NF-κB, AP-1, and NF-IL6 binding sequences are present.
The pIL-8Luc was incorporated into HeLa cells by transfection. After 24 hours, the cells were pretreated with cPrG-HCl at a specified concentration for 1 hour and then stimulated with TNFα (20 ng/ml) for 4 hours, after which luciferase activity was measured.

The test system of experiment [5] is NF-κB. The following applies: earlier abstract of the inventors (Kamata et al., 2000); cited from earlier work.
Another experiment concerns the target T1, IKK (Homo sapiens, UniProt O14920+O15111).
T1 construct: host or cells: HeLa cells (inferred)
Conditions: earlier abstract of the inventors (Kamata et al., 2000); cited from earlier work.

A further experiment has as its system JNK. Conditions: earlier abstract of the inventors (Kamata et al., 2000); cited from earlier work.

Structures are written as SMILES. “Also recorded” adds a separate entry of the source. Counter-ions that a name gives are not always drawn.

T1 sequence (O15111 whole entry): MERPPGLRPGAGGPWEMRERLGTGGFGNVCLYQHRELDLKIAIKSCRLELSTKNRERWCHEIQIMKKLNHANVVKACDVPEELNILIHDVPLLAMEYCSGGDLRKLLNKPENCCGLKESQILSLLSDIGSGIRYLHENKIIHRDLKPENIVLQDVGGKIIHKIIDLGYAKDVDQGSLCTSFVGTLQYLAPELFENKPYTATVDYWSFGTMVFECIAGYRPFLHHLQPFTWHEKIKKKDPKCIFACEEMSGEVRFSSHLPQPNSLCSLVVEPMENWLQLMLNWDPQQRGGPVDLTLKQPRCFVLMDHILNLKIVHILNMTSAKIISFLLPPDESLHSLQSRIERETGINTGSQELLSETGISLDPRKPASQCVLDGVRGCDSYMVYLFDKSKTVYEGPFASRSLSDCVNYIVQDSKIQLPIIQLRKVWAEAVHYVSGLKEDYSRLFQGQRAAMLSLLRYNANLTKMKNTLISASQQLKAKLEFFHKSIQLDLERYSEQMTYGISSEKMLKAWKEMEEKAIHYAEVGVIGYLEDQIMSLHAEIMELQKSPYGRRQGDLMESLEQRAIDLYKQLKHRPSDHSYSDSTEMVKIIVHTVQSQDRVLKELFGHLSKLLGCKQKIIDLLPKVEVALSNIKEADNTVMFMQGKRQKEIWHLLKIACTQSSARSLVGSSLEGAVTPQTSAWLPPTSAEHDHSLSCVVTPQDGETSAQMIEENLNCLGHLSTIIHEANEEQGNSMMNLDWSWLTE
T1 sequence (O14920 whole entry): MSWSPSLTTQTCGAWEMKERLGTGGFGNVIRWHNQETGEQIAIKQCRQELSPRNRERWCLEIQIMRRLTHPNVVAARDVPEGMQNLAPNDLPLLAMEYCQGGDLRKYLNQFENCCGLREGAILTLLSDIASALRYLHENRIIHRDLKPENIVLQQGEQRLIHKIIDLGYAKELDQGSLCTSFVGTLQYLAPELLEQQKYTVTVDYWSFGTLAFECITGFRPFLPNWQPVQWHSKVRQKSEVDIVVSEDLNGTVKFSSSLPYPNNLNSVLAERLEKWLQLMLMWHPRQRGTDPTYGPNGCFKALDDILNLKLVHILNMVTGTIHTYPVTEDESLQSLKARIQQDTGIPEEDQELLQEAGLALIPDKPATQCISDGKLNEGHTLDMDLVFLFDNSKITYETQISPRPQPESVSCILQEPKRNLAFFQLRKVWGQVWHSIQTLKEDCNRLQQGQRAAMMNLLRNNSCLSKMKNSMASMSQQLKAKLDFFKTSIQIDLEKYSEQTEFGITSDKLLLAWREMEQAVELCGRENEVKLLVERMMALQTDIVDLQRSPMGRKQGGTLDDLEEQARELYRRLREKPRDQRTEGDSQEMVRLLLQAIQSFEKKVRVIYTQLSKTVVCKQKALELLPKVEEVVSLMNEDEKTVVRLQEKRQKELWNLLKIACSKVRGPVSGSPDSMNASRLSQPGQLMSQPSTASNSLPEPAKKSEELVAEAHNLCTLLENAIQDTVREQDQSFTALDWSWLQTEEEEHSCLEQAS
T1 sequence (Q9Y6K9 whole entry partner): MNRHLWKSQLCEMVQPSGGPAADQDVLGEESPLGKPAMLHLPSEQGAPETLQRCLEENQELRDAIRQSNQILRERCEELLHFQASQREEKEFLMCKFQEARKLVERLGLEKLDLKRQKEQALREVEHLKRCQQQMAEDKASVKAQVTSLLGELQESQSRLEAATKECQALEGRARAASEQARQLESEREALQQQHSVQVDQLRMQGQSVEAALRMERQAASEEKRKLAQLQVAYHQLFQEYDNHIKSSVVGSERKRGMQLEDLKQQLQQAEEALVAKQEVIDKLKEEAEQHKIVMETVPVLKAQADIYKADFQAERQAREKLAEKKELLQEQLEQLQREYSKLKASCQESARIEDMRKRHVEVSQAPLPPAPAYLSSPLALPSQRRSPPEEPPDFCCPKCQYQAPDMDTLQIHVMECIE

Regarding `COC1=CC(c2ccc[nH]2)=N/C1=C\c1[nH]c(C)c2c1C(C)CCC2` (centres unmarked) [cPrG-HCl, Cycloprodigiosin hydrochloride], in the experiment with CMV promoter, the “expression of the CMV promoter-dependent luciferase gene” value is reported as “did not inhibit”. The “DNA binding activation of NF-κB” value with NF-κB [1] (PMA stimulation, FIG. 3B) was “inhibited neither”. In addition, the “DNA binding activity of NF-κB” value in the experiment with NF-κB [1] (TNFα stimulation, FIG. 2G) is “did not suppress”. Also, on casein kinase II (CKII), the “effect on casein kinase II (CKII) activity” value is “does not directly suppress; also recorded: no suppressive effect”. In addition, the “DNA binding activity of AP-1” value in the experiment on AP-1 [2] is “no inhibitory effect”. In the experiment on NF-κB [3], the NF-κB transcriptional activation entry was “suppressed”. Also, the AP-1 transcriptional activation entry in the experiment with AP-1 [4] was “suppressed”. Also, in the experiment with IL-8 promoter, the “IL-8 promoter-dependent transcriptional activity induced by TNFα” value is given as “markedly suppressed”. Moreover, the “gene expression induction by NF-κB” value with NF-κB [5] is “significantly suppressed”. Also, the IKK activation entry at IKK is listed as “no suppressive effect”. The JNK activation entry in the experiment on JNK is listed as “no suppressive effect”.
